Measured values published in patent US5304125A, “Apparatus for administering solid particulate aerosols to the lungs” (priority 1993, dated 1994).
Counter-ions that a name gives are not always drawn.

Key:
[1] = test system: Na^+ transport rates by cystic fibrosis airway epithelia; test: Ussing chamber bioassay of Na+ transport (short circuit current) in freshly excised human cystic fibrosis airway epithelia; assay type: cell-based
From the text: Freshly excised human cystic fibrosis airway […] used to assay bioactive amiloride in solution. Freshly excised tissues is obtained from the Operating Room at The University of North Carolina Hospitals as previously described. R. Boucher, M. Stutts, M. Knowles, L. Cantley, and J. Gatzy, Na+ transport in cystic fibrosis respiratory epithelia. Abnormal basal rate and response to adenylate cyclase activation. J. Clin. Invest. 78, 1245-1252 (1986). The tissue preparation is mounted in a minature Ussing chamber that has 6 ml of solution bathing each (mucosal; basolateral) surface of the preparation. The solution is a Krebs-Ringer bicarbonate solution which approximates the ionic composition of plasma. This solution is warmed (37°) and circulated with a gas lift (95% oxygen, 5% CO2) system. Mixing time in this chamber has been previously measured by calibration with dyes (blue dextran) and is five seconds or less. The measurement of sodium transport rates is performed using a voltage clamp that is interfaced to the tissue preparation by pairs of potential sensing electrodes and current passing electrodes. The current required to null the transepithelial potential difference to zero is the short circuit current, which in human airway tissue is an accurate index of sodium transport rates. See R. Boucher et al., supra. […] This experiment was conducted as described above. […]

[2] = in vivo
[3] = Fate/dose of aerosolized amiloride (respirable, oropharyngeal, systemic) from Spinhaler or MDI in throat/Andersen impactor apparatus
Experimental: The present invention was tested using two devices that generate dry particle aerosols, the Spinhaler™ from Fisons, Inc., See Bell, J. Pharm. Sci. 60, 1559 (1971); Cox, Brit. Med. J. 2, 634 (1969), and the metered-dose inhaler (MDI). The Spinhaler™ consists of a rotor that holds a gelatin capsule containing the dry amiloride powder. After the capsule is pierced, the patient inhales through the mouthpiece causing the rotor to spin and vibrate at a high speed, dispensing and dispersing the drug. The MDI consists of a pressurized canister containing the drug, the propellant, and a surfactant. When activated, the MDI spray disperses the drug within large droplets of propellant into a spacer. Evaporation of the propellant and sedimentation of the larger particles yield dry drug that is inhaled by the patient.
(§1) FIG. 6 is a drawing of the experimental apparatus used in these studies. For the Spinhaler™ tests, lactose was used as a flow aid to dispense amiloride from the capsules. Before use, the lactose was not micronized, but was shaken through a 400 mesh sieve so that all lactose particles used were smaller than 37 μm. Amiloride was then mixed with the lactose in a 1:1 ratio and the material was reshaken through the 400 mesh sieve to break apart any agglomerates. Then 58 mg of the resieved mixture of amiloride and lactose was placed in capsule with pre-drilled holes and loaded into the Spinhaler™. Air at 60 liters per minute (Lpm) flowed in succession through the aerosol generator 60 (a Spinhaler™), an impactor 10 as described in connection with FIGS. 1-4 above, a glass "throat" 61, and a plastic "distal pharynx" 62. Within the distal pharynx an isokinetic sample at 28.3 Lpm flowed through a nozzle 63 and into an Andersen impactor 64. The remaining 31.7 Lpm of the original 60 Lpm was drawn off through a bypass line 65 that led to a filter 66, a rotameter 67, and to a vacuum (not illustrated). Gas that left the Andersen impactor flowed through a filter 68 to a second rotameter 69 to vacuum. To conduct a test, vacuum was applied simultaneously to both the Andersen impactor and the bypass lines. Air flow at 60 Lpm was maintained for four seconds to simulate an inspiration; six inspirations were used for each capsule of drug tested.
Amiloride used with the MDI was first milled until essentially all particles were smaller than 2.6 μm in diameter as determined using an optical microscope. This amiloride was then packaged in an MDI with Freon propellants (trichlorofluoromethane and dichlorodifluoromethane) and a surfactant (sorbitan trioleate), added to break up droplets or aggregates of solid particles. A Nebuhaler™ spacer 27 cm long, (see Newman, 39 Thorax 935 (1984)), was attached to the MDI to allow evaporation of the propellant and to remove larger particles by sedimentation. Prior to each release of drug from the MDI, the canister was shaken vigorously to achieve homogeneity. In each test, the MDI aerosol was dispersed into the spacer via a 50 μl metering valve designed to deliver 1 mg amiloride per puff; however, the actual delivery was closer to 3 mg/puff as determined by spectrophotometric analysis of all amiloride collected as discussed below. Leakage of some liquid from the MDI canisters between the filling time and the actual usage would have increased the concentration of amiloride without affecting internal canister pressure. Following the dispersion and a one second delay, vacuum was applied to both the Andersen impactor and bypass lines and maintained for four seconds. This procedure was repeated for a total of six aerosol puffs from the MDI for each test The MDI tests, like the Spinhaler™ tests, used a total flow of 60 Lpm; 28.3 to the Andersen impactor and […] through the bypass line.
Tests were conducted with the MDI and spacer both with and without the impactor. […]

cystic fibrosis = details: liquid aerosol; Knowles, N. Engl. J. Med. (1990); cited from earlier work
[4] = Aerosol size distribution (Andersen impactor); assay type: physicochemical; details: 60 Lpm
Experimental: as §1, with “SpinhalerTM” for “Spinhaler™”, “reshaken” left out, “resieved” left out, “SpinhalerTM.” for “Spinhaler™.”, “SpinhalerTM),” for “Spinhaler™),”, “tested. […] This amiloride was then packaged in an MDI with Freon propellants (trichlorofluoromethane and dichlorodifluoromethane) and a surfactant (sorbitan trioleate), added to break up droplets or aggregates of solid particles. A NebuhalerTM spacer 27 cm long, (see Newman, 39 Thorax 935 (1984)), was attached to the MDI to allow evaporation of the propellant and to remove larger particles by sedimentation. Prior to each release of drug from the MDI, the canister was shaken vigorously to achieve homogeneity. […] Leakage of some liquid from the MDI canisters between the filling time and the actual usage would have increased the concentration of amiloride without affecting internal canister pressure. […] The fractional efficiency of the impactor was determined by comparing the mass of amiloride collected on each stage of the Andersen impactor with and without the impactor in place. […] The components analyzed for amiloride included the SpinhalerTM and its used capsule, the NebuhalerTM spacer when used, the impactor when used, the glass throat, the distal pharynx, and the sidearm filter, plus the entry nozzle, six individual plates, and final filter of the Andersen impactor. Washes from each of these components were then analyzed for amiloride. […]” for “tested.”

[5] = test system: luminal membrane of airway epithelia; details: applied to the luminal membrane of airway epithelia; cited from earlier work

SMILES	time to complete inhibition of ISC (Na^+ transport) ([1]; Krebs-Ringer bicarbonate, 37°, human CF airway epithelia, dry powder particle size about 1 μm)	timed release effect (dissolution of solid particles) ([1]; respirable particles ~1 μm, aqueous solution approximating the ionic strength of plasma)	maximum systemic dose [2] [mg daily]	optimal respirable dose [2] [mg daily]	oropharyngeal deposition, fraction of generated amiloride [3] [%]	systemic dose relative to maximum [3] [mg/day]	total systemic daily dose [3] [mg]	oropharyngeal deposition (in words) ([3]; MDI or Spinhaler without spacer or impactor)	systemic dose relative to maximum (in words) ([3]; MDI with spacer alone, 12 mg/day respirable)	oropharyngeal dose (in words) ([3]; Spinhaler alone)	systemic dose (in words) ([3]; Spinhaler alone)	oropharyngeal deposition (in words) ([3]; with spacer or impactor, most particles larger than about 5 μm removed)	clinical benefit (cystic fibrosis)	mass median diameter (mmd) ([4]; MDI with spacer and impactor)	mass median diameter (mmd) ([4]; MDI with spacer, no impactor)	mass median diameter (mmd) ([4]; Spinhaler alone) [um]	mass median diameter (mmd) ([4]; Spinhaler with impactor)	inhibition of Na^+ and water absorption [5]
N=C(N)NC(=O)c1nc(Cl)c(N)nc1N [amiloride hydrochloride]	about sixty	dissolved slowly over time																
N=C(N)NC(=O)c1nc(Cl)c(N)nc1N [amiloride]			20	8 to 12	1.6	≤ 20	16.7	high	somewhat higher than the maximum	far too high	excessive	decreases substantially	confirmed clinical benefit	about 3 um	about 6 um	> 10	about 4 um	inhibit Na^+ and water absorption
